Measurements taken from publication PMC11078216, “Discovery of potent and selective activity-based probes (ABPs) for the deubiquitinating enzyme USP30” (RSC Chemical Biology, 2024).

Biological target: T1, USP30 (Homo sapiens, UniProt Q70CQ3)
T1 construct: We next determined cellular engagement of endogenous USP30 with IMP-2587 or IMP-2586; endogenous in cells; host or cells: HEK293T
T1 sequence (Q70CQ3 1-517): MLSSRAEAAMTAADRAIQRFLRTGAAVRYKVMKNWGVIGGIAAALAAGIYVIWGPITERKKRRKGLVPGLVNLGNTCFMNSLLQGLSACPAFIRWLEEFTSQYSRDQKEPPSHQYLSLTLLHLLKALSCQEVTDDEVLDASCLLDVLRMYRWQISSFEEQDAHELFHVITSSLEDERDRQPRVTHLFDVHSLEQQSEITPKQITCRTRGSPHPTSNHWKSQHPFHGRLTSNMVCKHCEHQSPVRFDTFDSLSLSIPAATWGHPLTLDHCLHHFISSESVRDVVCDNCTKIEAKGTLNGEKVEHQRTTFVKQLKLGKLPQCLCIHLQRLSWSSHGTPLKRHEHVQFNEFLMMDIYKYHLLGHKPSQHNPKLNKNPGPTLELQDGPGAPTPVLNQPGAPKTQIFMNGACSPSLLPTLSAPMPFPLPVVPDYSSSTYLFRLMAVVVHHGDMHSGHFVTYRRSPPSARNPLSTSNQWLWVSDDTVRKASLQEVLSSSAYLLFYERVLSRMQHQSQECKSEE
Test: In-cell target engagement using HA-Ub-VME competition, immunoblot
Assay type: cell-based
Settings: HEK293T cells, 1 hour, in-lysate HA-Ub-VME competition, western blot
Experimental: We next determined cellular engagement of endogenous USP30 with IMP-2587 or IMP-2586. […] In-cell concentration-dependent competition by IMP-2587 and IMP-2586 for USP30 were confirmed below 100 nM probe (Fig. 2b and c), whilst engagement of an exemplar unrelated DUB, UCHL1, occurred only at a much higher concentration (30 000 nM). We hypothesise that incomplete modification of USP30 by HA-Ub-VME is likely due to limited retention of USP30 activity in cell lysates, which have likely had the USP30 transmembrane domain compromised, highlighting the potential utility of a small molecule USP30 ABP applicable directly in intact cells. Direct USP30 target engagement by IMP-2587 and IMP-2586 was confirmed in HEK293T cells following 1 h probe treatment followed by cell lysis and CuAAC bio-orthogonal ligation to capture reagent azido-TAMRA-biotin (AzTB) for IMP-2587 or alkyne-TAMRA-biotin for IMP-2586 (Fig. 3a).[27] […] This unspecific background labelling is presumably due to the previously reported higher off-target CuAAC reactivity of an alkyne-bearing capture reagent, applied here due to incorporation of an azide tag in IMP-2586.[28] Moreover, the labelling of USP30 was further confirmed by biotin pulldown and immunoblotting.
2) USP30 in-cell engagement analysis […]
Protein concentration was determined by DC Protein assay (Bio-RAD). […]

SMILES	probe concentration at which in-cell competition for USP30 was confirmed
N#CN1CC[C@@H](NC(=O)c2cc(-c3ccccc3Oc3ccc(N=[N+]=[N-])cc3)n[nH]2)C1 [IMP-2586]	below 100 nM
C#Cc1cccc(-c2cc(NC(=O)CC3CCN(C#N)C3)on2)c1 (centres unmarked) [IMP-2587]	below 100 nM
